Test [1] has as its system hLPL bound to immobilized heparan sulfate. Kind of test: GPIHBP1-mediated extraction of LPL from HSPGs (SPR, immobilized heparin dp4 fragments). It is filed as binding, human. The settings on record: 12.5–200 nM GPIHBP1 proteins, 0.1–1.6 μM sulfated GPIHBP1^1–33, or GPIHBP1^34–131 with 1 μM sulfated GPIHBP1^1–33. The text has this: To mimic electrostatic conditions found in the sub-endothelial spaces where surface-bound heparan-sulfate proteoglycans (HSPGs) are abundant, we designed a surrogate sensor surface using a streptavidin-coated CM5 sensor chip to capture high densities of biotinylated synthetic heparin dp4 fragments ([28], [29]). The reference surface was loaded with a neutral and non-sulfated fragment (M09 S00 from Iduron), while the active surface was loaded with a negatively charged fragment (M09 S08a from Iduron) containing N- and O-6-linked sulfations on each of the […] glucosamine residues in the DP4 fragment. Only the highly sulfated oligosaccharide bound LPL, and those interactions were transient with high off-rates. Despite the very transient nature of this binding, we created a stable reservoir of hLPL on the sensor surface by combining the fast kinetics of polyelectrolyte interactions with severe mass transport limitation—the latter phenomenon impedes LPL escape from the surface due to the fast rebinding that is favored by the high densities of immobilized heparin fragments (300 fmol/mm^2). For each experiment, 12.5 nM hLPL was loaded for 100 s at a flow rate of 20 μl/min in 10 mM Hepes (pH 7.4), 150 mM NaCl, 4 mM CaCl2, 10% (vol/vol) glycerol, 0.05% (vol/vol) surfactant P20, 1 mg/ml defatted BSA, […], and 0.05% (wt/vol) NaN3.
To compare the ability of GPIHBP1^1–131 and its charge variants to bind and extract hLPL from this dynamic reservoir, we injected twofold serial dilutions of 1.25–200 nM GPIHBP1^1–131; 1.25–200 nM GPIHBP1^Cluster1-neutral; GPIHBP1^Cluster2-neutral; 1.25–200 nM GPIHBP1^34–131; 0.1–1.6 μM GPIHBP1^1–33 with Tyr^18–SO4; or 1.25–200 nM GPIHBP1^34–131 in the presence of 1 μM sulfated GPIHBP1^1–33 for 250 s at 20 μl/min in 10 mM Hepes (pH 7.4), 150 mM NaCl, 4 mM CaCl2, 10% (vol/vol) glycerol, 0.05% (vol/vol) surfactant P20, 0.2 mg/ml fatty acid-free BSA, and 0.05% (wt/vol) NaN3. At the end of each cycle, two consecutive injections of 10 μl 3 M guanidinium chloride regenerated the chip.
GPIHBP1’s ability to displace LPL from its HSPG-bound state in the sub-endothelial spaces is essential for the trans-endothelial trafficking of LPL to the luminal surface of capillary cells ([29]). The importance of the acidic tail in this process is supported by solid evidence from surrogate in vitro models and in vivo studies in gene-edited mice ([28], [29]). It was therefore important to determine the relative impact of the two charge-clusters in GPIHBP1 on their ability to disrupt LPL•HSPG interactions. To gain this insight, we measured the ability of different GPIHBP1 charge variants to displace hLPL from a SPR sensor chip surface coupled with a high density of immobilized small heparin-like fragments ([28]). […]

The next test deals with bLPL. Kind of test: Lipase activity assay, protection against spontaneous LPL inactivation. It counts as biochemical, bovine. The settings on record: 15 nM bLPL preincubated 20 min at 22°C with 1 μM synthetic peptide; Intralipid substrate, NEFA release 25 min; triplicates. The method, then: To determine lipase activity, 90 μl incubation mixture containing 166 mM NaCl, 28 U/ml heparin, 10% (w/v) fatty acid-free serum albumin, 250 mM Tris-HCl (pH 8.5), 0.16% intralipid, and 6% (v/v) chicken serum was mixed with 60 μl of sample buffer consisting of 150 mM NaCl, 0.1% (w/v) fatty acid-free serum albumin, 0.01% (v/v) Triton X-100, 10 mM HEPES (pH 7.4) and 15 nM bLPL. After 25 min incubation, non-esterified fatty acids (NEFA) released by LPL were quantified using the NEFA-HR kit according to manufacturer protocol (Wako Chemicals).
To address this question, we preincubated 15 nM purified bLPL for 20 min in the presence of 1 μM of synthetic peptides with different chain lengths and covering distinct regions of the first 33 residues in GPIHBP1 (supplemental Table S1). The residual bLPL activity was subsequently assessed by quantifying the release of non-esterified free fatty acids after a 25-min incubation with a lipid substrate emulsion (Intralipid) using the NEFA2-kit. […]
Fig. 2 LPL activity after incubation with synthetic peptides covering the acidic tail of GPIHBP^1–33 Purified bLPL (15 nM) was preincubated either alone or in the presence of 1 μM synthetic peptides or 150 nM GPIHBP1 for 20 min in 10 mM HEPES, 150 mM NaCl pH 7.4 at 22°C before LPL activity was assessed using Intralipid® as substrate. […]

Take “GPIHBP1^1–33: Synthetic peptide representing the N-terminal acidic tail of GPIHBP1, first 33 residues (QTQQEEEEEDEDHGPDDYDEEDEDEVEEEETNR; UniProt Q8IV16 21-53, looked up, fragment)”: in test [1], the “competitive displacement of HSPG-bound hLPL (in words)” value was “neither GPIHBP1^34–131 nor GPIHBP1^1–33 alone, or in combination, induced any detachment of LPL”. In the test with bLPL, the “preserving bLPL activity against spontaneous inactivation” value is “as efficient as 150 nM GPIHBP1^1–131”.

Source of the values: PMC11869522, “Competitive displacement of lipoprotein lipase from heparan sulfate is orchestrated by a disordered acidic cluster in GPIHBP1” (Journal of Lipid Research, 2025).
